Results published in patent US20190134005A1 (BioMarin Pharmaceutical Inc., priority 2016, published 2019).

What follows are molecules tested against T1, human CGT (Homo sapiens, UniProt Q16880) (assay: Assay 1: CGT Enzymatic Assay (RapidFire/MS/MS, 0.01% Tween 80)). Conditions: Table 1, Compounds of Formula (I) and Formula (II); CGT enzymatic assay, C6-NBD-dihydro-galactosylceramide readout; read-out: IC50.
T1 sequence (Q16880 21-541): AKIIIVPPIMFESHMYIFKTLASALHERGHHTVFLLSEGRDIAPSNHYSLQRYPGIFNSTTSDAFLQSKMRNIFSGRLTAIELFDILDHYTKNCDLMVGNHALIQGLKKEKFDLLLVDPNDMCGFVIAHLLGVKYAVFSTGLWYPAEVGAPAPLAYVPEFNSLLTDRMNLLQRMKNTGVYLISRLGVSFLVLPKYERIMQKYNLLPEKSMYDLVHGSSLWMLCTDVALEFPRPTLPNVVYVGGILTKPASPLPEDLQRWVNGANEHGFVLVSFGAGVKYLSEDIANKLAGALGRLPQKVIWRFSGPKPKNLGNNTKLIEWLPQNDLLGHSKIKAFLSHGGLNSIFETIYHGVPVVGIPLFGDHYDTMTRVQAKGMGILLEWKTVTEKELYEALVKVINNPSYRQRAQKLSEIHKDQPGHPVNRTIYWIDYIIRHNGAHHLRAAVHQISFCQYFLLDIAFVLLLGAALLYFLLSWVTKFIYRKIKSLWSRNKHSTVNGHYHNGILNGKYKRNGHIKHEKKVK
Format: biochemical

Row | IC50 [nM] | SMILES
1 | < 1000 | COC[C@]1(C)N(c2ccc(Cl)cc2)C(=O)N(c2ccc(Cl)cc2)[C@]1(O)c1cccc(OC(F)(F)F)c1 [Compound 296-2, (4S,5S)-1,3-bis(4-chlorophenyl)-4-hydroxy-5-(methoxymethyl)-5-methyl-4-(3-(trifluoromethoxy)phenyl)imidazolidin-2-one]
2 | < 1000 | N#Cc1ccc(N2C(=O)N(c3ccc(Cl)cc3)C3(CCC3)C2(O)c2cccc(OC(F)(F)F)c2)cc1 (centres unmarked) [Compound 288, 4-(5-(4-chlorophenyl)-8-hydroxy-6-oxo-8-(3-(trifluoromethoxy)phenyl)-5,7-diazaspiro[3.4]octan-7-yl)benzonitrile]
3 | < 1000 | Cc1ccc(N2C(=O)N(c3ccc(C#N)cc3)C3(CCC3)C2(O)c2cccc(OC(F)(F)F)c2)cc1 (centres unmarked) [Compound 279, 4-(8-hydroxy-6-oxo-7-(p-tolyl)-8-(3-(trifluoromethoxy)phenyl)-5,7-diazaspiro[3.4]octan-5-yl)benzonitrile]
4 | < 1000 | COCC1(C)N(c2ccc(Cl)cc2)C(=O)N(c2ccc(Cl)cc2)C1(O)c1cccc(C#N)c1 (centres unmarked) [Compound 297, 3-(1,3-bis(4-chlorophenyl)-4-hydroxy-5-(methoxymethyl)-5-methyl-2-oxoimidazolidin-4-yl)benzonitrile]
5 | < 1000 | N#Cc1ccc(N2C(=O)N(c3ccc(Br)cc3)C(O)(c3cccc(OC(F)(F)F)c3)C23CCCC3)cc1 (centres unmarked) [Example 325, 4-(3-(4-bromophenyl)-4-hydroxy-2-oxo-4-(3-(trifluoromethoxy)phenyl)-1,3-diazaspiro[4.4]nonan-1-yl)benzonitrile]

Same assay, conditions: Table 1, Compounds of Formula (I) and Formula (II); CGT enzymatic assay; read-out: IC50

Row | IC50 [nM] | SMILES
6 | < 1000 | CC[C@H]1N(c2ccc(F)cc2)C(=O)N(c2ccc(F)cc2)C1(O)c1cccc(C(F)(F)F)c1 (single isomer, unassigned) [Compound 139-2]
7 | > 50000 | O=C1N(c2ccc(Br)cc2)C(=O)C(O)(c2ccco2)N1c1ccc(Br)cc1 (centres unmarked) [Example 198, 1,3-bis(4-bromophenyl)-5-(furan-2-yl)-5-hydroxyimidazolidine-2,4-dione]
8 | < 1000 | N#Cc1cccc(C2(O)[C@@H](CC3CC3)N(c3ccc(Cl)cc3)C(=O)N2c2ccc(Cl)cc2)c1 (single isomer, unassigned) [Compound 132-2]
9 | > 50000 | O=C1N(c2ccccc2)CC(O)(c2ccccc2)N1c1ccccc1 (centres unmarked) [Example 21, 4-hydroxy-1,3,4-triphenylimidazolidin-2-one]
10 | < 1000 | COCc1c(-c2cccc(C(F)(F)F)c2)n(-c2ccc(Cl)cc2)c(=O)n1-c1ccc(Cl)cc1 [Example 41, 1,3-bis(4-chlorophenyl)-4-(methoxymethyl)-5-(3-(trifluoromethyl)phenyl)-1,3-dihydro-2H-imidazol-2-one]
11 | < 1000 | CCc1ccc(N2C(=O)N(c3ccc(CC)cc3)C(O)(c3cccc(C#N)c3)[C@H]2C)cc1 (single isomer, unassigned) [Compound 104-2]
12 | 1000 to 10000 | COc1cccc(C2(C)C(O)N(c3ccc(Br)cc3)C(=O)N2c2ccc(Br)cc2)c1 (centres unmarked) [Compound 126, 1,3-bis(4-bromophenyl)-5-hydroxy-4-(3-methoxyphenyl)-4-methylimidazolidin-2-one]
13 | > 50000 | O=C1N(c2ccc(Br)cc2)C(=O)C(O)(c2ccc(OCC3CCCC3)cc2)N1c1ccc(Br)cc1 (centres unmarked) [Example 183, 1,3-bis(4-bromophenyl)-5-(4-(cyclopentylmethoxy)phenyl)-5-hydroxyimidazolidine-2,4-dione]
14 | < 1000 | N#Cc1cccc(C2(O)[C@H](C3CC3)N(c3ccc(Cl)cc3)C(=O)N2c2ccc(Cl)cc2)c1 (stereo partly drawn) [Example 187-1, 3-((5S)-1,3-bis(4-chlorophenyl)-5-cyclopropyl-4-hydroxy-2-oxoimidazolidin-4-yl)benzonitrile]
15 | < 1000 | CCCC1N(c2ccc(Cl)cc2)C(=O)N(c2ccc(Cl)cc2)C1(O)c1cccc(C(F)(F)F)c1 (centres unmarked) [Compound 87, 1,3-bis(4-chlorophenyl)-4-hydroxy-5-propyl-4-(3-(trifluoromethyl)phenyl)imidazolidin-2-one]
16 | 10000 to 50000 | O=C1N(c2ccc(Br)cc2)CC(O)(c2ccc(Cl)s2)N1c1ccc(Br)cc1 (centres unmarked) [Example 5, 1,3-bis(4-bromophenyl)-4-(5-chlorothiophen-2-yl)-4-hydroxyimidazolidin-2-one]
17 | 1000 to 10000 | CC1N(c2ccccc2)C(=O)N(c2ccccc2)C1(O)c1cccc(OC(F)(F)F)c1 (centres unmarked) [Example 230, 4-hydroxy-5-methyl-1,3-diphenyl-4-(3-(trifluoromethoxy)phenyl)imidazolidin-2-one]
18 | 50000 to 100000 | CC(C)c1ccc(N2C(=O)N(c3ccc(C(C)C)cc3)C(O)(c3ccccc3)C2=O)cc1 (centres unmarked) [Compound 145, 5-hydroxy-1,3-bis(4-isopropylphenyl)-5-phenylimidazolidine-2,4-dione]
19 | < 1000 | C[C@@]1(C(F)(F)F)N(c2ccc(Cl)cc2)C(=O)N(c2ccc(Cl)cc2)C1(O)c1cccc(OC(F)(F)F)c1 (single isomer, unassigned) [Example 159-2]
20 | < 1000 | CC[C@H]1N(c2ccc(Br)cc2)C(=O)N(c2ccc(Br)cc2)C1(O)c1cccc(C(F)(F)F)c1 (stereo partly drawn) [Compound 67-2, (5R)-1,3-bis(4-bromophenyl)-5-ethyl-4-hydroxy-4-(3-(trifluoromethyl)phenyl)imidazolidin-2-one]
21 | 1000 to 10000 | Cc1cccc(-c2c(C)n(-c3ccc(Cl)cc3)c(=O)n2-c2ccc(Cl)cc2)c1 [Compound 260, 1,3-bis(4-chlorophenyl)-4-methyl-5-(m-tolyl)-1,3-dihydro-2H-imidazol-2-one]
22 | < 1000 | C[C@H]1N(c2ccc(Cl)cc2)C(=O)N(c2ccc(Cl)cc2)C1(O)c1cccc(Cl)c1 (single isomer, unassigned) [Compound 62-2]
23 | 10000 to 50000 | CC(C)(C)c1cccc(C2(O)CN(c3ccc(Cl)cc3)C(=O)N2c2ccc(Cl)cc2)c1 (centres unmarked) [Compound 128, 4-(3-(tert-butyl)phenyl)-1,3-bis(4-chlorophenyl)-4-hydroxyimidazolidin-2-one]
24 | 10000 to 50000 | O=C1N(c2ccc(Br)cc2)C(=O)C(O)(c2ccccc2)N1c1ccc(Br)cc1 (centres unmarked) [Compound 141, 1,3-bis(4-bromophenyl)-5-hydroxy-5-phenylimidazolidine-2,4-dione]
25 | < 1000 | CCC[C@@H]1N(c2ccc(Cl)cc2)C(=O)N(c2ccc(Cl)cc2)C1(O)c1cccc(Cl)c1 (stereo partly drawn) [Compound 114-1, (5S)-4-(3-chlorophenyl)-1,3-bis(4-chlorophenyl)-4-hydroxy-5-propylimidazolidin-2-one]
26 | < 1000 | O=C1N(c2ccc(Cl)cc2)C(C2COC2)C(O)(c2cccc(OC(F)(F)F)c2)N1c1ccc(Cl)cc1 (centres unmarked) [Compound 237, 1,3-bis(4-chlorophenyl)-4-hydroxy-5-(oxetan-3-yl)-4-(3-(trifluoromethoxy)phenyl)imidazolidin-2-one]
27 | > 50000 | COc1ccc(C2(O)CN(c3ccc(Br)cc3)C(=O)N2c2ccc(Br)cc2)cn1 (centres unmarked) [Example 54, 1,3-bis(4-bromophenyl)-4-hydroxy-4-(6-methoxypyridin-3-yl)imidazolidin-2-one]
28 | 1000 to 10000 | N#Cc1cccc(C2(O)[C@H](CC3CC3)N(c3ccc(Cl)cc3)C(=O)N2c2ccc(Cl)cc2)c1 (single isomer, unassigned) [Compound 132-1]

Row | SMILES | IC50 [nM]
29 | O=C1N(c2ccc(I)cc2)C(=O)C(O)(c2ccccc2)N1c1ccc(I)cc1 (centres unmarked) [Example 203, 5-hydroxy-1,3-bis(4-iodophenyl)-5-phenylimidazolidine-2,4-dione] | 10000 to 50000
